Assay results from the CheMixHub viscosity set.

Assay: xn = mol fraction of the nth substance listed

ClC(Cl)Cl + CCCCCCCCO
viscosity [mPa·s], 101 kPa
Conditions	303.15 K	313.15 K
x1 = 0.0471	5.924	4.259
x1 = 0.0996	5.36	3.883
x1 = 0.149	4.852	3.545
x1 = 0.1997	4.346	3.212
x1 = 0.2493	3.898	2.902
x1 = 0.3001	3.475	2.593
x1 = 0.3529	3.039	2.315
x1 = 0.4037	2.666	2.07
x1 = 0.4548	2.332	1.823
x1 = 0.5001	2.062	1.648
x1 = 0.555	1.772	1.426
x1 = 0.5995	1.552	1.273
x1 = 0.6467	1.37	1.134
x1 = 0.7001	1.171	0.987
x1 = 0.7484	1.036	0.883
x1 = 0.7997	0.929	0.769
x1 = 0.8451	0.804	0.704
x1 = 0.9007	0.693	0.627
x1 = 0.9494	0.616	0.555

CC(=O)OCc1ccccc1 + CCCCCO
viscosity [mPa·s], 101.33 kPa
Conditions	x1 = 0.1074	x1 = 0.2083	x1 = 0.2988	x1 = 0.4051	x1 = 0.5012	x1 = 0.6057	x1 = 0.7115	x1 = 0.8097	x1 = 0.9004
293.15 K	3.865	3.649	3.465	3.261	3.087	2.909	2.738	2.589	2.459
303.15 K	2.789	2.661	2.551	2.427	2.321	2.21	2.103	2.009	1.926
313.15 K	2.194	2.1	2.018	1.927	1.848	1.766	1.686	1.616	1.553
323.15 K	1.296	1.288	1.281	1.274	1.266	1.259	1.251	1.244	1.237

CCCCCCCCCC(=O)OC + CCCCCO
viscosity [mPa·s], 100 kPa
Conditions	x1 = 0.1	x1 = 0.2	x1 = 0.3	x1 = 0.4	x1 = 0.5	x1 = 0.6	x1 = 0.7	x1 = 0.8001	x1 = 0.9001
298.15 K	2.764	2.385	2.169	2.028	1.946	1.892	1.866	1.859	1.875
303.15 K	2.451	2.119	1.938	1.825	1.754	1.706	1.689	1.686	1.712
308.15 K	2.158	1.892	1.741	1.646	1.588	1.549	1.535	1.536	1.555
313.15 K	1.918	1.697	1.571	1.49	1.444	1.413	1.402	1.407	1.426
318.15 K	1.713	1.529	1.423	1.358	1.32	1.293	1.288	1.292	1.312
323.15 K	1.535	1.387	1.294	1.239	1.211	1.189	1.186	1.194	1.212

CC(=O)OCc1ccccc1 + CCCCO
viscosity [mPa·s], 101.33 kPa
Conditions	x1 = 0.1023	x1 = 0.1976	x1 = 0.3075	x1 = 0.4014	x1 = 0.5022	x1 = 0.5973	x1 = 0.7048	x1 = 0.8005	x1 = 0.8914
293.15 K	2.803	2.748	2.685	2.633	2.578	2.527	2.471	2.422	2.376
303.15 K	2.224	2.18	2.129	2.087	2.043	2.002	1.957	1.918	1.881
313.15 K	1.66	1.641	1.619	1.6	1.581	1.562	1.542	1.524	1.507
323.15 K	1.104	1.116	1.131	1.144	1.158	1.172	1.187	1.201	1.214

CCCCCCCCCCCCCCCC + CCCCO
101 kPa
Conditions	viscosity [mPa·s]
298.15 K, x2 = 0.3	2.675
323.15 K, x2 = 0.8	1.435

ClC(Cl)Cl + CCCCO
viscosity [mPa·s], 303.15 K
Conditions	101 kPa	101.3 kPa
x2 = 0.0563	0.5315	0.5315
x2 = 0.0995	0.5491	0.5491
x2 = 0.1395	0.5709	0.5709
x2 = 0.1858	0.6001	0.6001
x2 = 0.2305	0.6329	0.6329
x2 = 0.2878	0.6839	0.6839
x2 = 0.301	0.6958	0.6958
x2 = 0.3666	0.7663	0.7663
x2 = 0.4891	0.9373	0.9373
x2 = 0.5662	1.076	1.076
x2 = 0.6718	1.314	1.314
x2 = 0.7659	1.574	1.574
x2 = 0.8333	1.78	1.78
x2 = 0.9386	2.107	2.107

ClC(Cl)Cl + CCCCn1cc[n+](C)c1.F[B-](F)(F)F
298.15 K, 101 kPa
Conditions	viscosity [mPa·s]
x1 = 0.1079	92.5
x1 = 0.2033	73.3
x1 = 0.7028	9.24

CCCCCCCCCC(=O)OC + CCCO
viscosity [mPa·s], 100 kPa
Conditions	x1 = 0.0999	x1 = 0.1999	x1 = 0.2999	x1 = 0.3995	x1 = 0.4995	x1 = 0.599	x1 = 0.6999	x1 = 0.8002	x1 = 0.8976
298.15 K	1.745	1.671	1.648	1.652	1.676	1.702	1.746	1.788	1.859
303.15 K	1.566	1.506	1.487	1.495	1.515	1.547	1.583	1.622	1.692
308.15 K	1.408	1.361	1.35	1.36	1.38	1.413	1.442	1.482	1.546
313.15 K	1.271	1.236	1.228	1.241	1.262	1.295	1.325	1.36	1.418
318.15 K	1.151	1.124	1.124	1.136	1.161	1.19	1.216	1.252	1.304
323.15 K	1.045	1.027	1.031	1.045	1.067	1.097	1.126	1.158	1.207

CCCCCCCCCCCCCCCC + CCCO
101 kPa
Conditions	viscosity [mPa·s]
298.15 K, x2 = 0.3	2.665
308.15 K, x2 = 0.8	1.795

ClC(Cl)Cl + CCCO
viscosity [mPa·s]
Conditions	101 kPa	101.3 kPa
293.15 K, x2 = 0.1045	0.7119	–
293.15 K, x2 = 0.2064	0.7711	–
293.15 K, x2 = 0.3054	0.8524	–
293.15 K, x2 = 0.4027	0.9582	–
293.15 K, x2 = 0.5075	1.105	–
293.15 K, x2 = 0.6005	1.255	–
293.15 K, x2 = 0.7045	1.507	–
293.15 K, x2 = 0.8005	1.746	–
293.15 K, x2 = 0.8967	1.998	–
303 K, x1 = 0.2987	–	1.065
303 K, x1 = 0.4992	–	0.8162
303 K, x1 = 0.699	–	0.6346
303 K, x1 = 0.9085	–	0.5383
303.15 K, x2 = 0.059	0.5225	0.5225
303.15 K, x2 = 0.1045	0.6482	–
303.15 K, x2 = 0.1099	0.5365	0.5365
303.15 K, x2 = 0.1428	0.5488	0.5488
303.15 K, x2 = 0.1958	0.5706	0.5706
303.15 K, x2 = 0.2064	0.6878	–
303.15 K, x2 = 0.2432	0.5949	0.5949
303.15 K, x2 = 0.3054	0.7556	–
303.15 K, x2 = 0.3447	0.6588	0.6588
303.15 K, x2 = 0.4027	0.8383	–
303.15 K, x2 = 0.4974	0.8026	0.8026
303.15 K, x2 = 0.5075	0.9487	–
303.15 K, x2 = 0.6005	1.073	–
303.15 K, x2 = 0.6171	0.9716	0.9716
303.15 K, x2 = 0.7045	1.242	–
303.15 K, x2 = 0.7318	1.185	1.185
303.15 K, x2 = 0.8005	1.408	–
303.15 K, x2 = 0.8606	1.46	1.46
303.15 K, x2 = 0.8967	1.584	–
303.15 K, x2 = 0.9106	1.565	1.565
303.15 K, x2 = 0.9251	1.595	1.595
303.15 K, x2 = 0.9307	1.606	–
303.15 K, x2 = 0.95	1.643	–
311 K, x1 = 0.0987	–	1.283
311 K, x1 = 0.2987	–	0.9064
311 K, x1 = 0.4992	–	0.7227
311 K, x1 = 0.699	–	0.5734
311 K, x1 = 0.9085	–	0.4977
313.15 K, x2 = 0.1045	0.5901	–
313.15 K, x2 = 0.2064	0.6192	–
313.15 K, x2 = 0.3054	0.6675	–
313.15 K, x2 = 0.4027	0.7329	–
313.15 K, x2 = 0.5075	0.8143	–
313.15 K, x2 = 0.6005	0.9163	–
313.15 K, x2 = 0.7045	1.043	–
313.15 K, x2 = 0.8967	1.278	–
319 K, x1 = 0.0987	–	1.08
319 K, x1 = 0.2941	–	0.8178
319 K, x1 = 0.497	–	0.6404
319 K, x1 = 0.699	–	0.5202
319 K, x1 = 0.9085	–	0.4655
323.15 K, x2 = 0.1045	0.4791	–
323.15 K, x2 = 0.2064	0.535	–
323.15 K, x2 = 0.3054	0.5965	–
323.15 K, x2 = 0.4027	0.6495	–
323.15 K, x2 = 0.5075	0.7165	–
323.15 K, x2 = 0.6005	0.7941	–
323.15 K, x2 = 0.7045	0.8805	–
323.15 K, x2 = 0.8005	0.965	–
323.15 K, x2 = 0.8967	1.047	–
